Assay results from patent US8609669B2, “Potassium channel modulators” (AbbVie Inc., priority 2010, dated 2013).

Target: T1, KCNQ 2/3 channels (HEK293 cells stably expressing human KCNQ2 and KCNQ3 subunits) (Homo sapiens, UniProt O43525+O43526)
T1 construct: expressed in transfected cells; host or cells: HEK293
Assay: KCNQ2/3 channel activation, thallium flux FLIPR assay (BTC-AM dye)
Format: cell-based
Settings: for Emax: HEK293, maximum response relative to response of retigabine at 10 μM (set at 100%), read-out: Max. %; for EC50: HEK293 cells expressing human KCNQ2 and KCNQ3, FLIPR thallium flux
Experimental: The following example describes the assay that can be used to identify compounds that activate KCNQ 2/3 channels.
HEK293 cells stably expressing human KCNQ2 and KCNQ3 subunits were seeded in 96-well, black-walled, clear-bottomed, poly-D-lysine coated plates (BD Biosciences, Bedford, Mass.) at a density of 1×10^5 cells per well 24 hours before the assay. On the assay day, BTC-AM dye (Invitrogen, Carlsbad, Calif.) was loaded into the cells by replacing the cell culture medium with 100 μL/well of 4 μM dye in DPBS. Dye loading was allowed to proceed for 2 hours at room temperature and then cells were washed twice in 100 μL/well of assay buffer (in mM: 10 HEPES pH 7.3, 5 glucose, 140 Na-gluconate, 2.5 K-gluconate, 3.6 Ca-gluconate, 2 MgSO4, 0.1 Ouabain) to remove unloaded dye. Cells were incubated in 50 μL of assay buffer before loading onto a FLIPR system (Molecular Devices, Sunnyvale, Calif.). Various concentrations of compounds to be assayed were added to the cells in 50 μL of assay buffer and incubated for 4 minutes. The fluorescence signal was initiated by adding 100 μL of assay buffer containing 6 mM TlNO3 and 10 mM K2SO4. Fluors were excited using the 488-nm line of an argon laser and emission was filtered using a 540±30 nm bandpass filter. Fluorescent signals were recorded for 3 minutes. Responses over baseline values were plotted versus concentrations of test compounds to obtain an EC50 value. The maximum response for each test compound was determined relative to the response produced at 10 μM by retigabine. The maximum response of retigabine at 10 μM was set at 100%.

Question: With `O=C(Cc1ccccc1O)Nc1nn2cccnc2c1-c1ccc(Cl)cc1` [Example 104, N-[3-(4-chlorophenyl)pyrazolo[1,5-a]pyrimidin-2-yl]-2-(2-hydroxyphenyl)acetamide] as the compound, how does the Emax read?
Answer: 10%

Question: And the EC50?
Answer: > 10000 nM

Question: For `COc1cccc(CC(=O)Nc2nn3c(C)ccnc3c2CC(C)(C)C)c1` [Example 38, N-[3-(2,2-dimethylpropyl)-7-methylpyrazolo[1,5-a]pyrimidin-2-yl]-2-(3-methoxyphenyl)acetamide], which Emax is on record?
Answer: 163%

Question: And the EC50?
Answer: > 10000 nM

Question: With `COc1ccc(CC(=O)Nc2nn3c(C)cc(C)nc3c2CC(C)(C)C)cc1` [Example 16, N-[3-(2,2-dimethylpropyl)-5,7-dimethylpyrazolo[1,5-a]pyrimidin-2-yl]-2-(4-methoxyphenyl)acetamide] as the compound, how does the Emax read?
Answer: 174%

Question: And the EC50?
Answer: 1000 to 10000 nM

Question: `CC(C)(C)c1c(NC(=O)CCc2ccc(C(F)(F)F)cc2)nn2cccnc12` [Example 165, N-(3-tert-butylpyrazolo[1,5-a]pyrimidin-2-yl)-3-[4-(trifluoromethyl)phenyl]propanamide] was tested. Which Emax did it give?
Answer: 178%

Question: What about the EC50 of the same compound?
Answer: 100 to 500 nM

Question: How did the Emax turn out when `Cc1cnc2c(-c3ccc(F)c(C)c3)c(NC(=O)CCC(C)(C)C)nn2c1` [Example 164, N-[3-(4-fluoro-3-methylphenyl)-6-methylpyrazolo[1,5-a]pyrimidin-2-yl]-4,4-dimethylpentanamide] was run?
Answer: 126%

Question: What about the EC50 of the same compound?
Answer: 500 to 1000 nM

Question: How did the Emax turn out when `CC(C)(C)CC(=O)Nc1nn2cccnc2c1/C=C/c1ccc(C(F)(F)F)cc1` [Example 147, 3,3-dimethyl-N-(3-{(E)-2-[4-(trifluoromethyl)phenyl]vinyl}pyrazolo[1,5-a]pyrimidin-2-yl)butanamide] was run?
Answer: 65%

Question: And the EC50?
Answer: 1000 to 10000 nM

Question: How did the Emax turn out when `O=C(CC1CC2CCC1C2)Nc1nn2cccnc2c1-c1ccc(Cl)cc1` (racemic) [Example 158, (±)-exo-2-bicyclo[2.2.1]hept-2-yl-N-[3-(4-chlorophenyl)pyrazolo[1,5-a]pyrimidin-2-yl]acetamide] was run?
Answer: 143%

Question: And the EC50?
Answer: 100 to 500 nM

Question: Which Emax does the source give for `Cc1cc(C)n2nc(NC(=O)CC3CCCCC3)c(-c3cccc(Cl)c3)c2n1` [Example 52, N-[3-(3-chlorophenyl)-5,7-dimethylpyrazolo[1,5-a]pyrimidin-2-yl]-2-cyclohexylacetamide] here?
Answer: 156%

Question: And the EC50?
Answer: 100 to 500 nM

Question: How did the Emax turn out when `CC(C)(C)OC(=O)Nc1nn2cccnc2c1/C=C/C1CCCCC1` [Example 177, tert-butyl {3-[(E)-2-cyclohexylvinyl]pyrazolo[1,5-a]pyrimidin-2-yl}carbamate] was run?
Answer: 51%

Question: What about the EC50 of the same compound?
Answer: 1000 to 10000 nM

Question: What does the source list for `CC(C)c1c(NC(=O)CCC2CC2)nn2cccnc12` [Example 118, 3-cyclopropyl-N-(3-isopropylpyrazolo[1,5-a]pyrimidin-2-yl)propanamide]?
Answer: Emax: 14%; EC50: > 10000 nM

Question: For `Cc1ccnc2c(Cc3ccc(F)cc3)c(NC(=O)CCC3CCCC3)nn12` [Example 71, 3-cyclopentyl-N-[3-(4-fluorobenzyl)-7-methylpyrazolo[1,5-a]pyrimidin-2-yl]propanamide], which Emax is on record?
Answer: 141%

Question: And the EC50?
Answer: < 100 nM

Question: What does the source list for `Cc1cc(-c2c(NC(=O)Cc3ccc(F)cc3)nn3cccnc23)ccc1Cl` [Example 45, N-[3-(4-chloro-3-methylphenyl)pyrazolo[1,5-a]pyrimidin-2-yl]-2-(4-fluorophenyl)acetamide]?
Answer: Emax: 95%; EC50: > 10000 nM

Question: What does the source list for `Cc1cc(-c2c(NC(=O)CCC3CCCC3)nn3c(C)ccnc23)ccc1Cl` [Example 46, N-[3-(4-chloro-3-methylphenyl)-7-methylpyrazolo[1,5-a]pyrimidin-2-yl]-3-cyclopentylpropanamide]?
Answer: Emax: 117%; EC50: 100 to 500 nM

Question: Which results are given for `Cc1ccc(-c2c(NC(=O)CC(C)(C)C)nn3c(C)ccnc23)cc1F` [Example 12, N-[3-(3-fluoro-4-methylphenyl)-7-methylpyrazolo[1,5-a]pyrimidin-2-yl]-3,3-dimethylbutanamide]?
Answer: Emax: 101%; EC50: 1000 to 10000 nM

Question: What does the source list for `Cc1cnc2c(-c3cccc(Cl)c3)c(NC(=O)CC(C)(C)C)nn2c1` [Example 51, N-[3-(3-chlorophenyl)-6-methylpyrazolo[1,5-a]pyrimidin-2-yl]-3,3-dimethylbutanamide]?
Answer: Emax: 73%; EC50: 1000 to 10000 nM

Question: With `O=C(CC12CC3CC(CC(C3)C1)C2)Nc1nn2cccnc2c1-c1ccc2ccccc2c1` [Example 116, 2-(adamantan-1-yl)-N-[3-(2-naphthyl)pyrazolo[1,5-a]pyrimidin-2-yl]acetamide] as the compound, how does the Emax read?
Answer: 98%

Question: And the EC50?
Answer: 500 to 1000 nM

Question: `Cc1cc(C)n2nc(NC(=O)CCC3CCCC3)c(-c3ccc(C(F)(F)F)cc3)c2n1` [Example 61, 3-cyclopentyl-N-{5,7-dimethyl-3-[4-(trifluoromethyl)phenyl]pyrazolo[1,5-a]pyrimidin-2-yl}propanamide] was tested. Which Emax did it give?
Answer: 152%

Question: What about the EC50 of the same compound?
Answer: 100 to 500 nM

Question: With `CC(C)(C)c1c(NC(=O)CCC2CCCC2)nn2cccnc12` [Example 105, N-(3-tert-butylpyrazolo[1,5-a]pyrimidin-2-yl)-3-cyclopentylpropanamide] as the compound, how does the Emax read?
Answer: 153%

Question: And the EC50?
Answer: 100 to 500 nM

Question: Which results are given for `COc1cc(CC(=O)Nc2nn3cccnc3c2-c2ccc(Cl)cc2)cc(OC)c1` [Example 109, N-[3-(4-chlorophenyl)pyrazolo[1,5-a]pyrimidin-2-yl]-2-(3,5-dimethoxyphenyl)acetamide]?
Answer: Emax: 8%; EC50: > 10000 nM

Question: Which Emax does the source give for `Cc1cnc2c(-c3ccc(F)cc3)c(NC(=O)Cc3ccc(Cl)cc3)nn2c1` [Example 27, 2-(4-chlorophenyl)-N-[3-(4-fluorophenyl)-6-methylpyrazolo[1,5-a]pyrimidin-2-yl]acetamide] here?
Answer: 125%

Question: And the EC50?
Answer: 100 to 500 nM

Question: With `Cc1cnc2c(-c3ccc(F)c(C)c3)c(NC(=O)CC3CC4CCC3C4)nn2c1` (racemic) [Example 150, (±)-exo-2-bicyclo[2.2.1]hept-2-yl-N-[3-(4-fluoro-3-methylphenyl)-6-methylpyrazolo[1,5-a]pyrimidin-2-yl]acetamide] as the compound, how does the Emax read?
Answer: 198%

Question: And the EC50?
Answer: < 100 nM

Question: What does the source list for `COc1cccc(CC(=O)Nc2nn3cc(C)cnc3c2-c2ccc(F)cc2)c1` [Example 26, N-[3-(4-fluorophenyl)-6-methylpyrazolo[1,5-a]pyrimidin-2-yl]-2-(3-methoxyphenyl)acetamide]?
Answer: Emax: 154%; EC50: 500 to 1000 nM

Question: Which results are given for `Cc1ccnc2c(-c3ccc(F)cc3)c(NC(=O)Cc3ccc(F)cc3)nn12` [Example 28, 2-(4-fluorophenyl)-N-[3-(4-fluorophenyl)-7-methylpyrazolo[1,5-a]pyrimidin-2-yl]acetamide]?
Answer: Emax: 120%; EC50: 1000 to 10000 nM

Question: How did the Emax turn out when `CCC1(c2c(NC(=O)CCC3CCCC3)nn3cccnc23)CCCCC1` [Example 145, 3-cyclopentyl-N-[3-(1-ethylcyclohexyl)pyrazolo[1,5-a]pyrimidin-2-yl]propanamide] was run?
Answer: 182%

Question: What about the EC50 of the same compound?
Answer: 100 to 500 nM

Question: How did the Emax turn out when `CC(C)(C)c1c(NC(=O)Cc2ccccc2)nn2cccnc12` [Example 137, N-(3-tert-butylpyrazolo[1,5-a]pyrimidin-2-yl)-2-phenylacetamide] was run?
Answer: 195%

Question: What about the EC50 of the same compound?
Answer: 1000 to 10000 nM

Question: How did the Emax turn out when `Cc1cc(C)n2nc(NC(=O)CC3CCCCC3)c(-c3cccc(F)c3)c2n1` [Example 86, 2-cyclohexyl-N-[3-(3-fluorophenyl)-5,7-dimethylpyrazolo[1,5-a]pyrimidin-2-yl]acetamide] was run?
Answer: 138%

Question: What about the EC50 of the same compound?
Answer: < 100 nM

Question: Which Emax does the source give for `CC(C)(C)CC(=O)Nc1nn2cccnc2c1C#Cc1ccc(OC(F)(F)F)cc1` [Example 156, 3,3-dimethyl-N-(3-{[4-(trifluoromethoxy)phenyl]ethynyl}pyrazolo[1,5-a]pyrimidin-2-yl)butanamide] here?
Answer: 40%

Question: What about the EC50 of the same compound?
Answer: 1000 to 10000 nM
